Here are results for one molecule from patent US10851069B2, “Compositions of crystallized hydrophobic compounds and methods of making and using same” (Massachusetts Institute of Technology, priority 2016, dated 2020).

For one data set, the system named is rat Pdx1. The data set can be described thus: qPCR of explanted capsules, rat islet function/viability marker. Type of data set: in vivo. The note with it: explanted at approximately 430 (amorphous) or 460 (crystalline) days post-transplant. The text has this: Total RNA was isolated from fibrosed spheres (with adhered tissue and immune overgrowth, if present), liquid nitrogen snap-frozen immediately following excision, using TRIzol (Invitrogen, Carlsbad, Calif.) according to the manufacturer's instructions. In addition, to help ensure complete tissue disruption, we also employed strong mechanical disruption with a Polytron homogenizer. Thus, gene expression signatures shown throughout are proportional and representative of the entire cell population present on and/or around retrieved materials. […] Mouse (5′-[…]-3′ (SEQ. ID. No.:1); reverse: 5′-CGGGTTCCGCTGTGTAAG-3′ (SEQ. ID. No.:2)) and rat (5′-CTCTCGTGCCATGTGAACC-3′ (SEQ. ID. No.:3); reverse: 5′-[…]-3′ (SEQ. ID. No.:4)) Pdx1 primers were designed using Primer Express software (Applied Biosystems, Carlsbad, Calif., USA) and evaluated using LaserGene software (DNAStar, Madison, Wis., USA) to ensure species rat (encapsulated islet) or mouse (host)-specificity, and normalized to mouse (5′-[…]-3′ (SEQ. ID. No.:5); reverse: 5′-[…]-3′ (SEQ. ID. No.:6)) and rat (5′-[…]-3′ (SEQ. ID. No.:7); reverse: 5′-[…]-3′ (SEQ. ID. No.:8)) Beta-actin, respectively. […] Results were analyzed using the comparative CT (ΔΔCT) method as described by the manufacturer. […]
For orientation: Quantitative PCR measures a nucleic acid by following its amplification.

Data set [1] can be described thus: Drug levels in retrieved capsules, IP lavage and plasma in non-human primates (HPLC, LCMS). In kind it is in vivo, cynomolgus macaques. The procedure: LC pumps used are Agilent 1290 Infinity Binary pumps with CTC Pal Autosampler. MS is a Sciex API6500 triple quad. Sample Storage Conditions: −80° C. Sample Processing Extraction Volume: 10 μL. Extraction Method: Protein Precipitation. For example: GW2580 plasma concentration analysis: Sample Extraction Procedure: 1. 10 μL of calibration standards, quality controls, blanks and samples were aliquoted into a 96-well plate. 2. 60 μL of IS-SS (internal standard) (100 ng/mL QNZ, carbutamide, chrysin, carbamazepine, glafenine, dexamethasone, glyburide, and d4AEA in acetonitrile) were added to all samples except for double blanks. 60 μL of acetonitrile was then added to double blanks. 3. The plate was covered and samples mixed, followed by centrifugation for 5 minutes at 3000 rpm at 4° C. 4. 50 μL of supernatant was then transferred into a clean 96-well plate using a liquid handler. 5. Samples were diluted with 100 μL of MilliQ water, and the plate was once again covered and mixed for about a minute prior to sample injection onto the LC-MS/MS at 1.00-2,500 ng/mL. LC Conditions: Waters BEH C18, 50×2.1 mm, 1.7 μm. Run temperature: 50° C. Mobile Phase A, 95:5:0.1 (v:v:v) Water:Acetonitrile:Formic Acid (1.2 min). Mobile Phase B, 50:50:0.1 (v:v:v) Methanol:Acetonitrile:Formic Acid (1.3 min). Flow: 0.8 mL/min. Injection Volume: 2 μL. MS Conditions: MS/MS: API-6500. Ionization Method: Electrospray. Positive/Negative Ion: Positive. Resolution: Unit. Source Temperature (° C.): 550. Transitions (m/z): Compound ID: GW2580 367.0/245.1 Da. Int Std ID: QNZ 357.0/197.1 Da. Data Analysis: Acceptance Criteria ‘±20% (±25% at the LLOQ), Regression Type, Linear (1/(x*x)), Accepted Curve Range 1.00-2,500 ng/mL Carryover 0.00%. HPLC
Calibration curves were obtained on an Agilent LC 1100 Series (Agilent Technologies, CA, USA) equipped with binary pump (G1312 Å), auto-sampler (G1313 Å), degasser and photodiode detector (DAD, G1315 Å). Chemstation was used for system control, data processing and data acquisition for LC. Chromatographic separation was achieved by an analytical Waters Atlantis T3 C18 column (5 μm, 4.6×250 mm). The temperature of column and auto-sampler were kept at 20° C.
Stock solution of GW2580 was prepared in dimethyl sulfoxide (DMSO) at a target concentration of 10 mg/ml and appropriate dilutions were made in DMSO to prepare standards (0.25-2500 μg/ml) for calibration curve of GW2580. 10 μl of standard solution was injected and the analytes were eluted by gradient mode using (A) acetonitrile and (B) 0.1% formic acid in water at a constant flow rate of 1 ml/min. The gradient conditions of mobile phase were as follows: 0 min 10% A, 10 min 95% A, 14 min 95% A, 16 min 10% A, 20 min 10% A.

On to `COc1ccc(COc2ccc(Cc3cnc(N)nc3N)cc2OC)cc1` [GW2580, 5-[[3-Methoxy-4-[(4-methoxyphenyl)methoxy]phenyl]methyl]-2,4-pyrimidinediamine], for which the “Pdx1 expression, crystal versus amorphous capsules” value in the data set with rat Pdx1 is “approximately 30 fold”. The “remaining drug extracted from retrieved capsules” value in data set [1] (0.5 mm capsules, IP space, 3 months) is recorded as “little to no drug”; in data set [1] (1.5 mm capsules, IP and SC sites, up to 6 months) it was “additional stores”. The plasma drug concentration entry in data set [1] (at the termination of the study) is given as “below detection limits”. Further, the “IP space (lavage) drug concentration” value in data set [1] (beyond 4 weeks, below detectable limit) was less than 0.5 ng/mL. The molecule further returned a concentration at 4 weeks in data set [1] (cynomolgus monkey, intraperitoneal space lavage fluid, ip, 4 weeks post-implantation) of 2 to 3 ng/mL.
